Reference: patent publication US20240208992A1, “MACROCYCLES AS CFTR MODULATORS” (Idorsia Pharmaceuticals Ltd, priority 2021, published 2024)

Target: human F508del-CFTR (Homo sapiens, UniProt P13569, DEL508-508)
Assay: F508del-CFTR cell surface expression (corrector activity), DiscoveRx ß-galactosidase complementation chemiluminescence assay in recombinant U2OS cell line;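 note: U2OS cells co-expressing ProLink-tagged F508del-CFTR and a membrane-anchored enzyme acceptor, where more surface CFTR restores β-galactosidase activity measured by chemiluminescence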
Conditions: for EC50: EC50, F508del-CFTR cell surface expression; for Emax: U2OS
[1] = U2OS cells, 16h compound incubation, geomean values
[2] = in relation to Emax of corrector lumacaftor (=100%), arithmetic mean values
[3] = U2OS cells, 16h compound incubation, geomean of several measurements
[4] = in relation to the Emax of the corrector lumacaftor (=100%), U2OS cells, 16h compound incubation, arithmetic mean
[5] = U2OS cell line, 16h compound incubation, geomean values
[6] = in relation to the Emax of the corrector lumacaftor (=100%), U2OS cell line, 16h compound incubation, arithmetic mean values

Chain of human F508del-CFTR (P13569 with tags, fused parts or gaps DEL508-508): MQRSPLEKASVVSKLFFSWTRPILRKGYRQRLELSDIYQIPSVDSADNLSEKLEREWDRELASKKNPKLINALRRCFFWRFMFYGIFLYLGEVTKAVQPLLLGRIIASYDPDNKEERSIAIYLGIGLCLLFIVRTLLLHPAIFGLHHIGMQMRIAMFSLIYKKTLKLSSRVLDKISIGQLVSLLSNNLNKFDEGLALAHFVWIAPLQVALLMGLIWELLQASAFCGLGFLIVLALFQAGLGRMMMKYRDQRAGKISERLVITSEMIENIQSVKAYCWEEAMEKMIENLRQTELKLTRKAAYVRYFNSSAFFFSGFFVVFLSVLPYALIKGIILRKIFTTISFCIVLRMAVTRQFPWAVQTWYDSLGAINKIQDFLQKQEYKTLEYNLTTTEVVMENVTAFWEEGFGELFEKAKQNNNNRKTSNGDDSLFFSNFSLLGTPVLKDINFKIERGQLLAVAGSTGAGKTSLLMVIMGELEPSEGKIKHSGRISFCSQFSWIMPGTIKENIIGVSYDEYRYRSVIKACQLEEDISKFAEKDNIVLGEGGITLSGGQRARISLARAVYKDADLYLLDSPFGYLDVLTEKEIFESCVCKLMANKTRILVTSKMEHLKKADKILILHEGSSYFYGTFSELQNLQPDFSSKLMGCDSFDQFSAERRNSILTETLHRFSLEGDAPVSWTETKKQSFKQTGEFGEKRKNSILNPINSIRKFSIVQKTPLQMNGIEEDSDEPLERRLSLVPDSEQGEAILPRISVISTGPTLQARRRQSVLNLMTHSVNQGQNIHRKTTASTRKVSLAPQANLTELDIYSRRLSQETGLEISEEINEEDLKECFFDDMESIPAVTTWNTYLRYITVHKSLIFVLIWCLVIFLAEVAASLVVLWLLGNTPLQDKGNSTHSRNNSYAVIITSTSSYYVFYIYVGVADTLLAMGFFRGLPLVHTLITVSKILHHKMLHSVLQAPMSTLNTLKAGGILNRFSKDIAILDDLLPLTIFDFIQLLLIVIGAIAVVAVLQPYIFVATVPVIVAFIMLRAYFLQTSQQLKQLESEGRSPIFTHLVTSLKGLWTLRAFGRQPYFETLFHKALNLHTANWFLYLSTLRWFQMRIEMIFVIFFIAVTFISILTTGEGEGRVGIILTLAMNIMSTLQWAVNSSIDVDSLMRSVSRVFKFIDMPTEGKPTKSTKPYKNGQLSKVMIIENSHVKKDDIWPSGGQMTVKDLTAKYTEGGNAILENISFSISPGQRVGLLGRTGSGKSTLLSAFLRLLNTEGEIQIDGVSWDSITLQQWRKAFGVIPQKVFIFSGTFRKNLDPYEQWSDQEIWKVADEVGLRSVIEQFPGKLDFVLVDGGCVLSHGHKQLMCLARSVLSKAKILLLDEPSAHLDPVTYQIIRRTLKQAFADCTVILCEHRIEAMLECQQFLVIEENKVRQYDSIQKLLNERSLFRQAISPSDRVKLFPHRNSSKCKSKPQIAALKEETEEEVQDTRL

| Structure (SMILES) | EC50 [1] | Emax [2] | also measured |
| --- | --- | --- | --- |
| Cc1cc(CCNC(=O)[C@@H]2CC(=O)N(C)[C@@H](CC3CCCC3)C(=O)N3CCCC[C@@H]3C(=O)N[C@H](Cc3ccccc3)COc3ccc4c(C)noc4c3C(=O)N2)on1 [Example 630, (8S,12S,18aR,21R)-21-benzyl-12-(cyclopentylmethyl)-3,11-dimethyl-N-(2-(3-methylisoxazol-5-yl)ethyl)-6,10,13,19-tetraoxo-6,7,8,9,10,11,12,13,16,17,18,18a,19,20,21,22-hexadecahydro-15H-isoxazolo[4′,5′:5,6]benzo[1,2-p]pyrido[2,1-f][1]oxa[4,7,10,14]tetraazacycloheptadecine-8-carboxamide] | 0.261 µM | 175% | – |
| COc1noc(CCNC(=O)[C@@H]2CC(=O)N(C)[C@@H](CC(C)C)C(=O)N(C)C3(CC(F)(F)C3)C(=O)N[C@H](Cc3ccccc3)COc3ccc4ncc(F)cc4c3C(=O)N2)c1F [Example 969, (3′S,7′S,13′R)-13′-benzyl-3,3,20′-trifluoro-N-(2-(4-fluoro-3-methoxyisoxazol-5-yl)ethyl)-7′-isobutyl-6′,9′-dimethyl-1′,5′,8′,11′-tetraoxo-2′,3′,4′,5′,6′,7′,8′,9′,11′,12′,13′,14′-dodecahydro-1′H-spiro[cyclobutane-1,10′-[1]oxa[4,7,10,14]tetraazacycloheptadecino[16,17-f]quinoline]-3′-carboxamide] | – | – | EC50 [3]: 0.142 µM; Emax [4]: 452% |
| Cc1cc(CCNC(=O)[C@@H]2CC(=O)N(C)[C@@H](CC(C)C)C(=O)N3CCCC[C@@H]3C(=O)N[C@H](Cc3ccccc3)COc3cnc4ccccc4c3C(=O)N2)no1 [Example 98, (9S,13S,19aR,22R)-22-benzyl-13-isobutyl-12-methyl-N-(2-(5-methylisoxazol-3-yl)ethyl)-7,11,14,20-] | – | – | EC50 [5]: 0.311 µM; Emax [6]: 326% |
| CC(C)C[C@H]1C(=O)N(C)[C@H](Cc2nc(-c3ccc(F)cn3)no2)C(=O)N[C@H](Cc2ccccc2)COc2ccc3ncc(F)cc3c2C(=O)N[C@H](C(=O)NC[C@@H](O)c2nc(C3CC3)no2)CC(=O)N1C [Example 892, (3S,7S,10R,13R)-13-benzyl-N-((R)-2-(3-cyclopropyl-1,2,4-oxadiazol-5-yl)-2-hydroxyethyl)-20-fluoro-10-((3-(5-fluoropyridin-2-yl)-1,2,4-oxadiazol-5-yl)methyl)-7-isobutyl-6,9-dimethyl-1,5,8,11-tetraoxo-1,2,3,4,5,6,7,8,9,10,11,12,13,14-tetradecahydro-[1]oxa[4,7,10,14]tetraazacycloheptadecino[16,17-f]quinoline-3-carboxamide] | – | – | EC50 [3]: 0.467 µM; Emax [4]: 442% |
| COc1cccc(CCNC(=O)[C@@H]2CC(=O)N(C)[C@@H](CC(C)C)C(=O)N3CCCC[C@@H]3C(=O)N[C@H](Cc3ccccc3)COc3ccc4c(cnn4C)c3C(=O)N2)c1 [Example 423, (8S,12S,18aR,21R)-21-benzyl-12-isobutyl-N-(3-methoxyphenethyl)-3,11-dimethyl-6,10,13,19-tetraoxo-6,7,8,9,10,11,12,13,16,17,18,18a,19,20,21,22-hexadecahydro-3H,15H-pyrido[2′,1′:6,7][1]oxa[4,7,10,14]tetraazacycloheptadecino[16,17-e]indazole-8-carboxamide] | 0.278 µM | 239% | – |
| COc1nccc2c1C(=O)N[C@H](C(=O)NCCc1nc(C(F)(F)F)no1)CC(=O)N(C)[C@@H](CC(C)C)C(=O)N1CCCC[C@@H]1C(=O)N[C@H](Cc1ccccc1)CO2 [Example 178, (7S,11S,17aR,20R)-20-benzyl-11-isobutyl-4-methoxy-10-methyl-5,9,12,18-tetraoxo-N-(2-(3-(trifluoromethyl)-1,2,4-oxadiazol-5-yl)ethyl)-5,6,7,8,9,10,11,12,15,16,17,17a,18,19,20,21-hexadecahydro-14H-dipyrido[2,1-f:3′,4′-p][1]oxa[4,7,10,14]tetraazacycloheptadecine-7-carboxamide] | – | – | EC50 [5]: 0.68 µM; Emax [6]: 237% |
| CC(C)C[C@H]1C(=O)N2CCCC[C@H]2C(=O)N[C@H](Cc2ccccc2)COc2ccc3ncc(F)cc3c2C(=O)N[C@H](C(=O)NCCn2ncc(C3CC3)n2)CC(=O)N1C [Example 779, (9S,13S,19aS,22R)-22-benzyl-N-(2-(4-cyclopropyl-2H-1,2,3-triazol-2-yl)ethyl)-5-fluoro-13-isobutyl-12-methyl-7,11,14,20-tetraoxo-7,8,9,10,11,12,13,14,17,18,19,19a,20,21,22,23-hexadecahydro-16H-pyrido[2′,11:6,7][1]oxa[4,7,10,14]tetraazacycloheptadecino[16,17-f]quinoline-9-carboxamide] | 0.811 µM | 213% | – |
| CC(C)C[C@H]1C(=O)N(C)C2(CC2)C(=O)N[C@H](Cc2ccccc2)COc2cnc3ccccc3c2C(=O)N[C@H](C(=O)NCCc2noc(C3CC3)n2)CC(=O)N1C [Example 115, (3′S,7′S,13′R)-13′-benzyl-N-(2-(5-cyclopropyl-1,2,4-oxadiazol-3-yl)ethyl)-7′-isobutyl-6′,9′-dimethyl-1′,5′,8′,11′-tetraoxo-2′,3′,4′,5′,6′,7′,8′,9′,11′,12′,13′,14′-dodecahydro-1′H-spiro[cyclopropane-1,10′-[1]oxa[4,7,10,14]tetraazacycloheptadecino[17,16-c]quinoline]-3′-carboxamide] | – | – | EC50 [5]: 0.38 µM; Emax [6]: 250% |
| COc1cccc(CCNC(=O)[C@@H]2CC(=O)N(C)[C@@H](CC(C)C)C(=O)N3CCN(S(=O)(=O)c4cccc(OC(F)(F)F)c4)C[C@@H]3C(=O)N[C@H](Cc3ccccc3)COc3ccc4ccccc4c3C(=O)N2)c1 [Example 732, (4aR,7R,18S,22S)-7-benzyl-22-isobutyl-N-(3-methoxyphenethyl)-21-methyl-5,16,20,23-tetraoxo-3-((3-(trifluoromethoxy)phenyl)sulfonyl)-2,3,4,4a,5,6,7,8,16,17,18,19,20,21,22,23-hexadecahydro-1H-naphtho[1,2-p]pyrazino[2,1-f][1]oxa[4,7,10,14]tetraazacycloheptadecine-18-carboxamide] | 0.064 µM | 239% | – |
| CC(C)C[C@H]1C(=O)N(C)[C@@H](CC(F)F)C(=O)N[C@H](Cc2ccccc2)COc2ccc3ncc(F)cc3c2C(=O)N[C@H](C(=O)NCCc2noc(C3CC3)n2)CC(=O)N1C [Example 802, (3S,7S,10S,13R)-13-benzyl-N-(2-(5-cyclopropyl-1,2,4-oxadiazol-3-yl)ethyl)-10-(2,2-difluoroethyl)-20-fluoro-7-isobutyl-6,9-dimethyl-1,5,8,11-tetraoxo-1,2,3,4,5,6,7,8,9,10,11,12,13,14-tetradecahydro-[1]oxa[4,7,10,14]tetraazacycloheptadecino[16,17-f]quinoline-3-carboxamide] | – | – | EC50 [3]: 0.723 µM; Emax [4]: 200% |
| COc1cc(F)c(CCNC(=O)[C@@H]2CC(=O)N(C)[C@@H](CC(C)C)C(=O)N3CCCC[C@@H]3C(=O)N[C@H](Cc3ccccc3)COc3cnc4ccccc4c3C(=O)N2)c(F)c1 [Example 74, (9S,13S,19aR,22R)-22-benzyl-N-(2,6-difluoro-4-methoxyphenethyl)-13-isobutyl-12-methyl-7,11,14,20-tetraoxo-7,8,9,10,11,12,13,14,17,18,19,19a,20,21,22,23-hexadecahydro-16H-pyrido[2′,1′:6,7][1]oxa[4,7,10,14]tetraazacycloheptadecino[17,16-c]quinoline-9-carboxamide] | – | – | EC50 [5]: 0.128 µM; Emax [6]: 271% |

Second part, led by results:

| EC50 [1] | Emax [2] | Structure (SMILES) | also measured |
| --- | --- | --- | --- |
| 0.087 µM | 305% | CC(C)C[C@H]1C(=O)N2CCCC[C@@H]2C(=O)N[C@H](Cc2ccccc2)COc2cnc3ccc(F)cc3c2C(=O)N[C@H](C(=O)NCCc2nc(C3CC3)no2)CC(=O)N1C [Example 641, (9S,13S,19aR,22R)-22-benzyl-N-(2-(3-cyclopropyl-1,2,4-oxadiazol-5-yl)ethyl)-5-fluoro-13-isobutyl-12-methyl-7,11,14,20-tetraoxo-7,8,9,10,11,12,13,14,17,18,19,19a,20,21,22,23-hexadecahydro-16H-pyrido[2′,1′:6,7][1]oxa[4,7,10,14]tetraazacycloheptadecino[17,16-c]quinoline-9-carboxamide] | – |
| 0.295 µM | 162% | Cc1cc(CCNC(=O)[C@@H]2CC(=O)N(C)[C@@H](CC(C)C)C(=O)N(CC3Cc4ccccc4O3)CC(=O)N[C@H](Cc3ccccc3)COc3cnc4ccccc4c3C(=O)N2)on1 (stereo partly drawn) [Example 702, (3S,7S,13R)-13-benzyl-9-((2,3-dihydrobenzofuran-2-yl)methyl)-7-isobutyl-6-methyl-N-(2-(3-methylisoxazol-5-yl)ethyl)-1,5,8,11-tetraoxo-1,2,3,4,5,6,7,8,9,10,11,12,13,14-tetradecahydro-[1]oxa[4,7,10,14]tetraazacycloheptadecino[17,16-c]quinoline-3-carboxamide] | – |
| 0.138 µM | 250% | Cc1cc(CCNC(=O)[C@@H]2CC(=O)N(C)[C@@H](CC(C)C)C(=O)N(CCC3CCCCC3)CC(=O)N[C@H](Cc3ccccc3)COc3cnc4c(F)cccc4c3C(=O)N2)on1 [Example 411, (3S,7S,13R)-13-benzyl-9-(2-cyclohexylethyl)-18-fluoro-7-isobutyl-6-methyl-N-(2-(3-methylisoxazol-5-yl)ethyl)-1,5,8,11-tetraoxo-1,2,3,4,5,6,7,8,9,10,11,12,13,14-tetradecahydro-[1]oxa[4,7,10,14]tetraazacycloheptadecino[17,16-c]quinoline-3-carboxamide] | – |
| 0.652 µM | 316% | CO[C@H]1C[C@]2(C1)C(=O)N[C@H](Cc1ccccc1)COc1ccc3ccccc3c1C(=O)N[C@H](C(=O)NCCc1cc(C)no1)CC(=O)N(C)[C@@H](CC(C)C)C(=O)N2C [Example 633, (1r,3S,3′S,7′S,13′R)-13′-benzyl-7′-isobutyl-3-methoxy-6′,9′-dimethyl-N-(2-(3-methylisoxazol-5-yl)ethyl)-1′,5′,8′,11′-tetraoxo-2′,3′,4′,5′,6′,7′,8′,9′,11′,12′,13′,14′-dodecahydro-1′H-spiro[cyclobutane-1,10′-naphtho[1,2-p][1]oxa[4,7,10,14]tetraazacycloheptadecine]-3′-carboxamide] | – |
